Source: the supplement of paper PMC11451515

Experiments:
Conditions in all cases: 48 h
P12-Ichikawa [1] = test: AUC of viability dose-response curve (% viability x log10 dose units); higher = less sensitive
How it was run: (§1)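 Leukemia cells adapted to each medium (500 or 1000 cells/well, 1536-well plates) were exposed to library compounds in DMSO for 48 h at 37°C at 11 threefold doses, 47 μM to 0.79 nM. Luminescence by CellTiter-Glo One was normalised per plate to DMSO and cell-free wells, then fitted with a four-parameter log-logistic curve on log10 dose. Curves above full viability were scaled and quality-control failures removed before area under the curve was integrated by trapezoidal rule.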

SEM cells [2] = test: as above
How it was run: as §1

NOMO1 [3] = test: as above
How it was run: as §1

P12-Ichikawa [4] = test: cell viability relative to DMSO control; higher = less cytotoxic
How it was run: (§2)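 In 1536-well plates, 5 μl of leukemia cells were seeded per well: 500 cells/well for NOMO1 or SEM and 1000 cells/well for P12-Ichikawa. Each line had first been adapted for at least four passages in each medium. Library compounds in DMSO were pin-dosed at 11 threefold concentrations between 47 μM and 0.79 nM, and CellTiter-Glo One luminescence was read after 48 h at 37°C. Viability is a per-plate percentage relative to DMSO wells, with cell-free wells as background.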

SEM cells [5] = test: as above
How it was run: as §2

NOMO1 [6] = test: as above
How it was run: as §2

CN1c2ccccc2C(=O)N2CCc3c([nH]c4ccccc34)C21 (stereo not drawn)
AUC of viability dose-response curve
Conditions	NOMO1 [3]	P12-Ichikawa [1]	SEM cells [2]
HPLM + 10% dialyzed FBS	445	470	453
RPMI 5 mM glucose + 10% FBS	466	454	438
RPMI 5 mM glucose + 10% dialyzed FBS	434	451	459

cell viability [%]
Conditions	NOMO1 [6]	P12-Ichikawa [4]	SEM cells [5]
HPLM + 10% dialyzed FBS, 0.000781 µM	122	122	136
HPLM + 10% dialyzed FBS, 0.00234 µM	115	118	120
HPLM + 10% dialyzed FBS, 0.00702 µM	118	112	114
HPLM + 10% dialyzed FBS, 0.0211 µM	138	123	127
HPLM + 10% dialyzed FBS, 0.0632 µM	130	119	125
HPLM + 10% dialyzed FBS, 0.19 µM	135	120	120
HPLM + 10% dialyzed FBS, 0.569 µM	151	116	122
HPLM + 10% dialyzed FBS, 1.71 µM	118	115	131
HPLM + 10% dialyzed FBS, 5.12 µM	107	111	125
HPLM + 10% dialyzed FBS, 15.4 µM	105	116	117
HPLM + 10% dialyzed FBS, 46.1 µM	102	117	101
RPMI 5 mM glucose + 10% FBS, 0.000781 µM	116	125	–
RPMI 5 mM glucose + 10% FBS, 0.00234 µM	108	139	–
RPMI 5 mM glucose + 10% FBS, 0.00702 µM	122	113	–
RPMI 5 mM glucose + 10% FBS, 0.0211 µM	116	119	–
RPMI 5 mM glucose + 10% FBS, 0.0632 µM	112	121	–
RPMI 5 mM glucose + 10% FBS, 0.19 µM	111	118	–
RPMI 5 mM glucose + 10% FBS, 0.569 µM	123	122	–
RPMI 5 mM glucose + 10% FBS, 1.71 µM	115	119	–
RPMI 5 mM glucose + 10% FBS, 5.12 µM	102	117	–
RPMI 5 mM glucose + 10% FBS, 15.4 µM	107	118	–
RPMI 5 mM glucose + 10% FBS, 46.1 µM	106	111	–
RPMI 5 mM glucose + 10% dialyzed FBS, 0.000781 µM	–	127	111
RPMI 5 mM glucose + 10% dialyzed FBS, 0.00234 µM	–	122	105
RPMI 5 mM glucose + 10% dialyzed FBS, 0.00702 µM	–	114	120
RPMI 5 mM glucose + 10% dialyzed FBS, 0.0211 µM	–	125	114
RPMI 5 mM glucose + 10% dialyzed FBS, 0.0632 µM	–	129	104
RPMI 5 mM glucose + 10% dialyzed FBS, 0.19 µM	–	116	112
RPMI 5 mM glucose + 10% dialyzed FBS, 0.569 µM	–	111	125
RPMI 5 mM glucose + 10% dialyzed FBS, 1.71 µM	–	114	109
RPMI 5 mM glucose + 10% dialyzed FBS, 5.12 µM	–	118	102
RPMI 5 mM glucose + 10% dialyzed FBS, 15.4 µM	–	115	89.1
RPMI 5 mM glucose + 10% dialyzed FBS, 46.1 µM	–	107	94.7

O=C(Nc1ncc(-c2cc(C(F)F)nn2-c2c(Cl)cccc2Cl)s1)C1CC1
AUC of viability dose-response curve
Conditions	NOMO1 [3]	P12-Ichikawa [1]	SEM cells [2]
HPLM + 10% dialyzed FBS	398	329	347
RPMI 5 mM glucose + 10% FBS	381	326	333
RPMI 5 mM glucose + 10% dialyzed FBS	370	345	340

cell viability [%]
Conditions	NOMO1 [6]	P12-Ichikawa [4]	SEM cells [5]
HPLM + 10% dialyzed FBS, 0.000781 µM	120	116	101
HPLM + 10% dialyzed FBS, 0.00234 µM	107	122	113
HPLM + 10% dialyzed FBS, 0.00702 µM	120	123	102
HPLM + 10% dialyzed FBS, 0.0211 µM	117	131	128
HPLM + 10% dialyzed FBS, 0.0632 µM	132	130	121
HPLM + 10% dialyzed FBS, 0.19 µM	138	129	124
HPLM + 10% dialyzed FBS, 0.569 µM	137	126	118
HPLM + 10% dialyzed FBS, 1.71 µM	99.1	14.2	47
HPLM + 10% dialyzed FBS, 5.12 µM	44.4	18.3	20.5
HPLM + 10% dialyzed FBS, 15.4 µM	62.8	11	21.9
HPLM + 10% dialyzed FBS, 46.1 µM	49	14.6	8.41
RPMI 5 mM glucose + 10% FBS, 0.000781 µM	–	–	112
RPMI 5 mM glucose + 10% FBS, 0.00234 µM	–	–	106
RPMI 5 mM glucose + 10% FBS, 0.00702 µM	–	–	123
RPMI 5 mM glucose + 10% FBS, 0.0211 µM	–	–	131
RPMI 5 mM glucose + 10% FBS, 0.0632 µM	–	–	127
RPMI 5 mM glucose + 10% FBS, 0.19 µM	–	–	137
RPMI 5 mM glucose + 10% FBS, 0.569 µM	–	–	124
RPMI 5 mM glucose + 10% FBS, 1.71 µM	–	–	31.5
RPMI 5 mM glucose + 10% FBS, 5.12 µM	–	–	14.8
RPMI 5 mM glucose + 10% FBS, 15.4 µM	–	–	14.8
RPMI 5 mM glucose + 10% FBS, 46.1 µM	–	–	4.67
RPMI 5 mM glucose + 10% dialyzed FBS, 0.000781 µM	–	–	115
RPMI 5 mM glucose + 10% dialyzed FBS, 0.00234 µM	–	–	103
RPMI 5 mM glucose + 10% dialyzed FBS, 0.00702 µM	–	–	99.9
RPMI 5 mM glucose + 10% dialyzed FBS, 0.0211 µM	–	–	137
RPMI 5 mM glucose + 10% dialyzed FBS, 0.0632 µM	–	–	127
RPMI 5 mM glucose + 10% dialyzed FBS, 0.19 µM	–	–	123
RPMI 5 mM glucose + 10% dialyzed FBS, 0.569 µM	–	–	130
RPMI 5 mM glucose + 10% dialyzed FBS, 1.71 µM	–	–	37.2
RPMI 5 mM glucose + 10% dialyzed FBS, 5.12 µM	–	–	17.8
RPMI 5 mM glucose + 10% dialyzed FBS, 15.4 µM	–	–	22
RPMI 5 mM glucose + 10% dialyzed FBS, 46.1 µM	–	–	5.55

NC(=O)C1CCCc2c1[nH]c1ccc(Cl)cc21 (stereo not drawn)
AUC of viability dose-response curve
Conditions	NOMO1 [3]	P12-Ichikawa [1]	SEM cells [2]
HPLM + 10% dialyzed FBS	370	417	343
RPMI 5 mM glucose + 10% FBS	401	436	381
RPMI 5 mM glucose + 10% dialyzed FBS	404	421	365

cell viability [%]
Conditions	NOMO1 [6]	P12-Ichikawa [4]	SEM cells [5]
HPLM + 10% dialyzed FBS, 0.000781 µM	111	112	115
HPLM + 10% dialyzed FBS, 0.00234 µM	129	112	120
HPLM + 10% dialyzed FBS, 0.00702 µM	121	113	129
HPLM + 10% dialyzed FBS, 0.0211 µM	117	114	125
HPLM + 10% dialyzed FBS, 0.0632 µM	123	115	119
HPLM + 10% dialyzed FBS, 0.19 µM	117	110	141
HPLM + 10% dialyzed FBS, 0.569 µM	105	105	126
HPLM + 10% dialyzed FBS, 1.71 µM	87.6	102	64.8
HPLM + 10% dialyzed FBS, 5.12 µM	57.4	83.4	27.4
HPLM + 10% dialyzed FBS, 15.4 µM	24.2	46.2	3.88
HPLM + 10% dialyzed FBS, 46.1 µM	7.26	38.2	1.72
RPMI 5 mM glucose + 10% FBS, 0.000781 µM	117	107	119
RPMI 5 mM glucose + 10% FBS, 0.00234 µM	121	111	122
RPMI 5 mM glucose + 10% FBS, 0.00702 µM	123	111	134
RPMI 5 mM glucose + 10% FBS, 0.0211 µM	105	104	133
RPMI 5 mM glucose + 10% FBS, 0.0632 µM	105	108	126
RPMI 5 mM glucose + 10% FBS, 0.19 µM	123	112	118
RPMI 5 mM glucose + 10% FBS, 0.569 µM	115	109	140
RPMI 5 mM glucose + 10% FBS, 1.71 µM	109	109	115
RPMI 5 mM glucose + 10% FBS, 5.12 µM	81.4	103	63.3
RPMI 5 mM glucose + 10% FBS, 15.4 µM	21.4	59.8	5.97
RPMI 5 mM glucose + 10% FBS, 46.1 µM	9.96	32.3	1.78
RPMI 5 mM glucose + 10% dialyzed FBS, 0.000781 µM	107	114	109
RPMI 5 mM glucose + 10% dialyzed FBS, 0.00234 µM	121	101	107
RPMI 5 mM glucose + 10% dialyzed FBS, 0.00702 µM	111	112	109
RPMI 5 mM glucose + 10% dialyzed FBS, 0.0211 µM	129	107	108
RPMI 5 mM glucose + 10% dialyzed FBS, 0.0632 µM	119	112	111
RPMI 5 mM glucose + 10% dialyzed FBS, 0.19 µM	116	106	126
RPMI 5 mM glucose + 10% dialyzed FBS, 0.569 µM	110	111	108
RPMI 5 mM glucose + 10% dialyzed FBS, 1.71 µM	116	94.4	76.8
RPMI 5 mM glucose + 10% dialyzed FBS, 5.12 µM	85.5	93.8	47.4
RPMI 5 mM glucose + 10% dialyzed FBS, 15.4 µM	24.3	48.2	6.13
RPMI 5 mM glucose + 10% dialyzed FBS, 46.1 µM	12	18.3	2.95
